From patent publication US20140235576A1, “PYRROLIDINE-2-CARBOXYLIC ACID DERIVATIVES AS IGLUR ANTAGONISTS” (Kobenhavns Universitet, priority 2013, published 2014)
Like-named read-outs stand apart in the source and are kept apart here. No end group written: not given here.

What was measured:
AMPA receptors [1] = conditions: native iGluR; values taken from reference 49; cited from earlier work
KA receptors [2] = conditions: native iGluR; values taken from reference 49; cited from earlier work
NMDA receptors [3] = conditions: native iGluR; values taken from reference 49; cited from earlier work
AMPA receptors [4] = assay: Radioligand binding at native AMPA receptors (rat synaptosomes); conditions: native iGluRs
Description: (§1) Analog 2 was characterized pharmacologically in radio ligand binding assays at native iGluRs (rat synaptosomes) and cloned homomeric subtypes, GluK1-3 (Table 1).

KA receptors [5] = assay: Radioligand binding at native KA receptors (rat synaptosomes); conditions: native iGluRs
Description: as §1

NMDA receptors [6] = assay: Radioligand binding at native NMDA receptors (rat synaptosomes); conditions: native iGluRs
Description: as §1

GluK1 = GluK1 (UniProt P22756); assay: Radioligand binding at cloned homomeric GluK1; conditions: cloned homomeric subtype
Description: as §1

GluK2 = GluK2 (UniProt P42260); assay: Radioligand binding at cloned homomeric GluK2; conditions: cloned homomeric subtype
Description: as §1

GluK3 = molecular target: T1, GluK3 (Rattus norvegicus, UniProt P42264); assay: Radioligand binding at cloned homomeric GluK3; conditions: cloned homomeric subtype
T1 construct: expressed in transfected cells
T1 sequence (P42264 32-919): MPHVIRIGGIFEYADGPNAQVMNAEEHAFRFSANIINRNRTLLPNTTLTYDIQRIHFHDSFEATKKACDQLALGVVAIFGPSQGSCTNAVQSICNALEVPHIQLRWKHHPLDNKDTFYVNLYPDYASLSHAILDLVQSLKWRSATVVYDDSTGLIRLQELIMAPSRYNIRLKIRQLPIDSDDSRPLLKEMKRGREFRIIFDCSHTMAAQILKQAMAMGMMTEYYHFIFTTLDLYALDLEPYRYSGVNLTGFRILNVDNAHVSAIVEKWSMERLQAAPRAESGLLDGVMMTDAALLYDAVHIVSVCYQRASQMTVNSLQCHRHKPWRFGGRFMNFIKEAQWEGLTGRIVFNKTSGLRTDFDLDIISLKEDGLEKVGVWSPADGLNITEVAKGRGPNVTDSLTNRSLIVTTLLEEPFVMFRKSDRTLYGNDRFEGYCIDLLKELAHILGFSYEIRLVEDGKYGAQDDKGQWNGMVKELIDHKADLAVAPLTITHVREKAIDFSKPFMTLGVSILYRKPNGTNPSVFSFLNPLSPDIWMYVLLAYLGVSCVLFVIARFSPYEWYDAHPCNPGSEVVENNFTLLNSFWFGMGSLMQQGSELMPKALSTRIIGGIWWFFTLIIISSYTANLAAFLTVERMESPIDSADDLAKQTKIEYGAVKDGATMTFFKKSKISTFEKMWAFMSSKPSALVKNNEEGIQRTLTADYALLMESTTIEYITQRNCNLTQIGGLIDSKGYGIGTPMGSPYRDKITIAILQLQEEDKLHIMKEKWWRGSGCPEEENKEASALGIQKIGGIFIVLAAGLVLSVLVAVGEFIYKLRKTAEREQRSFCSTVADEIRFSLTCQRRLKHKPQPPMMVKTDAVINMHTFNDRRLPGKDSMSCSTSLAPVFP
Description: as §1

GluN1/GluN2A-D = assay: Functional assay for subtypes GluN1/GluN2A-D; assay type: biochemical
GluN1/GluN2B = GluN1/GluN2B (Homo sapiens, UniProt Q13224); conditions: cited from earlier work
Sequence of GluN1/GluN2B (Q13224 27-1484, species assumed, other chains not shown): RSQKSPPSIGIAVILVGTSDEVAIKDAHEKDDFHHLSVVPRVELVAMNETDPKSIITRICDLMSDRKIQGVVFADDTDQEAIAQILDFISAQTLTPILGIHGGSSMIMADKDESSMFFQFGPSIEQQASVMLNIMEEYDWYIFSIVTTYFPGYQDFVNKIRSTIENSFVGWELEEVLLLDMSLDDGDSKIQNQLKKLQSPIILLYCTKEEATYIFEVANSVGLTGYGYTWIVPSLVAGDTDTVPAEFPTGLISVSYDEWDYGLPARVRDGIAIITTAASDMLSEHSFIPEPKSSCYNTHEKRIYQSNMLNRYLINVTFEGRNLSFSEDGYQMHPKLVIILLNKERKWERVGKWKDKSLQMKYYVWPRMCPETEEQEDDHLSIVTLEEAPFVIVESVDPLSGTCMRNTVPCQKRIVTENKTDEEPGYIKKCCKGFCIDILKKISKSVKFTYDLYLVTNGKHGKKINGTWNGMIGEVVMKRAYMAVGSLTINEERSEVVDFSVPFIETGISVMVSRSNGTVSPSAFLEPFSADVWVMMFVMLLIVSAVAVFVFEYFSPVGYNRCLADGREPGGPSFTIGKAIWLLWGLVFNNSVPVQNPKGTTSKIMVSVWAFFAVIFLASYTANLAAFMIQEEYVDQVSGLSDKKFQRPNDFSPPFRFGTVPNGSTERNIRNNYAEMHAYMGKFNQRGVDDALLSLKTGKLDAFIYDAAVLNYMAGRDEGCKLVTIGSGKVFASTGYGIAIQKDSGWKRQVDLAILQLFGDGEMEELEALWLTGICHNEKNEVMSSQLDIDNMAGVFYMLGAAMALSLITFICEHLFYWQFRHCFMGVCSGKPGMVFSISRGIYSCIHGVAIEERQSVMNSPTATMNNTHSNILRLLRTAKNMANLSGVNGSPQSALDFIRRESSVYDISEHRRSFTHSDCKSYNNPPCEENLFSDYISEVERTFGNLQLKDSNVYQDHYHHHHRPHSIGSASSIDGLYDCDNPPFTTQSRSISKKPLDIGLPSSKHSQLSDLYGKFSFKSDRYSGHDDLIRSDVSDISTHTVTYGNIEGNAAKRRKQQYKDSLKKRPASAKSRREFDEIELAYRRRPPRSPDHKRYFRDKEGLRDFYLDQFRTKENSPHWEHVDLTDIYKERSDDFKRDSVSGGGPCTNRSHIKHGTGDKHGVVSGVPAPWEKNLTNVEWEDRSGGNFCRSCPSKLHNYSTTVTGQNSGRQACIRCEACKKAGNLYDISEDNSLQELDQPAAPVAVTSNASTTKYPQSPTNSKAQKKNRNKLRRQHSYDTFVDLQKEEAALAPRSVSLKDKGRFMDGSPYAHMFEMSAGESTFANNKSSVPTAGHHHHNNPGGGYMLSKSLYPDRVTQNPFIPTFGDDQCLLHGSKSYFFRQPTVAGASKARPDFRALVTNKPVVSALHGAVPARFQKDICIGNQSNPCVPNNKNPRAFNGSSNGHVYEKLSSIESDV

O=C(O)c1cccc([C@H]2CCN[C@@H]2C(=O)O)c1 [Analog 1]
IC50 (AMPA receptors [1]): 51 µM | KA IC50 (KA receptors [2]): 22 µM | Ki (NMDA receptors [3]): 6 µM

O=C(O)c1ccc([C@H]2CCN[C@@H]2C(=O)O)cc1 [Analog 2, (2S,3R)-3-(4-Carboxyphenyl)pyrrolidine-2-carboxylic Acid]
IC50 (AMPA receptors [4]): > 100 µM | KA IC50 (KA receptors [5]): >100 µM | Ki (NMDA receptors [6]): 8.5 µM | NMDA, value in square brackets under Ki (pKi ± spread) (NMDA receptors [6]): [5.07 ± 0.04] | IC50 (NMDA receptors [6]; read-out: affinity for the NMDA receptors (IC50)): 8.5 µM | Ki (GluK1): > 100 µM | Ki (GluK2): > 100 µM | Ki (GluK3): > 100 µM | functional character at GluN1/GluN2A-D (GluN1/GluN2A-D): antagonist

Conantokin G (GEEELQENQELIREKSN; ends and bridges not checked; UniProt P07231 81-97, looked up)
preference for GluN1/GluN2B over GluN1/GluN2C and GluN1/2D (GluN1/GluN2B): 10 fold | selectivity for GluN1/GluN2B over GluN1GluN2A (GluN1/GluN2B): 100 fold
